# From US9783556B2, “Kinase inhibitors” (RESPIVERT LIMITED, priority 2012, dated 2017)
# What was measured:
# [1] = system: TNBS-induced colitis in mice; experiment: TNBS-induced colitis in mice; format: in vivo
# Protocol: On Day 0 of the study TNBS (200 μL) is administered intra-colonically via a plastic catheter followed by BID dosing of the vehicle, reference or test compound for 2 or 4 days. During the study animals are weighed every day and stool observations are made and recorded as a score, based on stool consistency. At the time of sacrifice on Day 2 (or Day 4) the large intestine is removed and the length and weight recorded. Sections of the colon are taken for either MPO analysis to determine neutrophil infiltration or for histopathology involving scoring to determine disease severity.
# Syk = Syk (Homo sapiens (Human), UniProt P43405); experiment: Syk enzyme inhibition (Z-LYTE FRET); format: biochemical
# Protocol: (§1) The enzyme inhibitory activities of compounds disclosed herein are determined by FRET using synthetic peptides labelled with both donor and acceptor fluorophores (Z-LYTE, Invitrogen Ltd., Paisley, UK).
# (§2) The inhibitory activities of compounds of the invention against c-Src and Syk enzymes (Invitrogen), are evaluated in a similar fashion to that described hereinabove. The relevant enzyme (3000 ng/mL or 2000 ng/mL respectively, 2.5 μL) is incubated with the test compound (either 4 μg/mL, 0.4 μg/mL, 0.04 μg/mL, or 0.004 μg/mL, 2.5 μL each) for 2 hr at RT. The FRET peptides (8 μM, 2.5 μL), and appropriate ATP solutions (2.5 μL, 800 μM for c-Src, and 60 μM ATP for Syk) are then added to the enzymes/compound mixtures and incubated for 1 hr. Development reagent (protease, 5 μL) is added for 1 hr prior to detection in a fluorescence microplate reader (Varioskan® Flash, ThermoFisher Scientific).
# (§3) In all cases, the site-specific protease cleaves non-phosphorylated peptide only and eliminates the FRET signal. Phosphorylation levels of each reaction are calculated using the ratio of coumarin emission (donor) over fluorescein emission (acceptor), for which high ratios indicate high phosphorylation and low ratios indicate low phosphorylation levels. The percentage inhibition of each reaction is calculated relative to non-inhibited control and the 50% inhibitory concentration (IC50 value) is then calculated from the concentration-response curve.
# [2] = target: p38 MAPKα isoform (MAPK14) (Homo sapiens (Human), UniProt Q16539); experiment: p38 MAPKα enzyme inhibition (Z-LYTE FRET); format: biochemical
# Protocol: as §1
# The following two assay variants can be used for determination of p38 MAPKα inhibition.
# The inhibitory activities of test compounds against the p38 MAPKα isoform (MAPK14: Invitrogen), are evaluated indirectly by determining the level of activation/phosphorylation of the down-stream molecule, MAPKAP-K2. The p38 MAPKα protein (80 ng/mL, 2.5 μL) is mixed with the test compound (2.5 μL of either 4 μg/mL, 0.4 μg/mL, 0.04 μg/mL or 0.004 μg/mL) for 2 hr at RT. […] The mixture is incubated for 1 hr at RT. Development reagent (protease, 5 μL) is added for 1 hr prior to detection in a fluorescence microplate reader (Varioskan® Flash, ThermoFisher Scientific).
# This method follows the same steps as Method 1 above, but utilises a higher concentration of the p38 MAPKα protein (2.5 μL of 200 ng/mL protein instead of 2.5 μL of 80 ng/mL protein) for mixing with the test compound.
# as §3
# PBMCs [3] = experiment: LPS-induced TNFα/IL-8 release in PBMC cells; format: cell-based; conditions: Homo sapiens, LPS-stimulated PBMCs, IL-8, read-out: IC50 Values for Inhibition of Cytokine Release PBMCs IL-8
# Protocol: Peripheral blood mononuclear cells (PBMCs) from healthy subjects are separated from whole blood using a density gradient (Lymphoprep, Axis-Shield Healthcare). The PBMCs are seeded in 96 well plates and treated with compounds at the desired concentration for 2 hours before addition of 1 ng/mL LPS (Escherichia Coli 0111:B4 from Sigma Aldrich) for 24 hours under normal tissue culture conditions (37° C., 5% CO2). The supernatant is harvested for determination of IL-8 and TNFα concentrations by sandwich ELISA (Duo-set, R&D systems) and read on the fluorescence microplate reader (Varioskan® Flash, ThermoFisher Scientific). The concentration at 50% inhibition (IC50) of IL-8 and TNFα production is calculated from the dose response curve.
# c-Src = c-Src (Homo sapiens (Human), UniProt P12931); experiment: c-Src enzyme inhibition (Z-LYTE FRET); format: biochemical
# Protocol: as §1, §2, §3
# HT29 cells = experiment: IL-1β-induced IL-8 release in HT29 cells; format: cell-based; conditions: Homo sapiens, HT-29, IL-1β-stimulated HT29 cells, read-out: IC50 Values for Inhibition of Cytokine Release HT29 cells IL-8
# Protocol: HT29 cells, a human colon adenocarcinoma cell line, are plated in a 96 well plate (24 hrs) and pre-treated with compounds at the desired concentration for 2 hours before addition of 5 ng/mL of IL-1β (Abcam) for 24 hours. Supernatants are harvested for IL-8 quantification by Sandwich ELISA (Duo-set, R&D System). The IC50 is determined from the dose response curve.
# GSK 3α = GSK 3α (Homo sapiens (Human), UniProt P49840); experiment: GSK 3α enzyme inhibition (Z-LYTE FRET); format: biochemical; conditions: read-out: IC50 Values for Enzyme Inhibition GSK3α
# Protocol: as §1
# The following two assay variants can be used for determination of GSK 3α inhibition.
# The inhibitory activities of compounds of the invention against the GSK 3α enzyme isoform (Invitrogen), are evaluated by determining the level of activation/phosphorylation of the target peptide. The GSK3-α protein (500 ng/mL, 2.5 μL) is mixed with the test compound (2.5 μL at either 4 μg/mL, 0.4 μg/mL, 0.04 μg/mL, or 0.004 μg/mL) for 2 hr at RT. The FRET peptide (8 μM, 2.5 μL), which is a phosphorylation target for GSK3α, and ATP (40 μM, 2.5 μL) are then added to the enzyme/compound mixture and the resulting mixture incubated for 1 hr. Development reagent (protease, 5 μL) is added for 1 hr prior to detection in a fluorescence microplate reader (Varioskan® Flash, ThermoFisher Scientific).
# as §3
# This method follows the same steps as Method 1 above, but utilises a shorter period of mixing of the test compound (105 minutes instead of 2 hours) with the GSK3-α protein.
# PBMCs [4] = experiment: IL-2 and IFN gamma release in CD3/CD28 stimulated PBMC cells; format: cell-based; conditions: Homo sapiens
# Protocol: PBMCs from healthy subjects are separated from whole blood using a density gradient (Lymphoprep, Axis-Shield Healthcare). Cells are added to a 96 well plate pre-coated with a mixture of CD3/CD38 monoclonal antibodies (0.3 μg/mL eBioscience and 3 μg/mL BD Pharmingen respectively). Compound at the desired concentration is then added to the wells and the plate left for 3 days under normal tissue culture conditions. Supernatants are harvested and IL-2 and IFN gamma release determined by Sandwich ELISA (Duo-set, R&D System). The IC50 is determined from the dose response curve.
# [5] = TNBS mice, conducted over 2 days
# p38 MAPKα isoform (MAPK14), sequence (Q16539 whole entry, canonical isoform): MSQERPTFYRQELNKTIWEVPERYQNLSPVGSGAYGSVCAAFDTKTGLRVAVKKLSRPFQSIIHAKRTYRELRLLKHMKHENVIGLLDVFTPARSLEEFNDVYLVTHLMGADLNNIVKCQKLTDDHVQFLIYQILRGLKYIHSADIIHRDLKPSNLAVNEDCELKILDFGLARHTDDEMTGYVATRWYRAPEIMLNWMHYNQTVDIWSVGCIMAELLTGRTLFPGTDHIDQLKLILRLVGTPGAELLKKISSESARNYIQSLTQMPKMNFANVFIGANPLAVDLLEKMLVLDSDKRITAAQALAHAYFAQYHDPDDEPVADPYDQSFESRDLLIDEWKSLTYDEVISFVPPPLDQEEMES
# c-Src, sequence (P12931 whole entry, looked up): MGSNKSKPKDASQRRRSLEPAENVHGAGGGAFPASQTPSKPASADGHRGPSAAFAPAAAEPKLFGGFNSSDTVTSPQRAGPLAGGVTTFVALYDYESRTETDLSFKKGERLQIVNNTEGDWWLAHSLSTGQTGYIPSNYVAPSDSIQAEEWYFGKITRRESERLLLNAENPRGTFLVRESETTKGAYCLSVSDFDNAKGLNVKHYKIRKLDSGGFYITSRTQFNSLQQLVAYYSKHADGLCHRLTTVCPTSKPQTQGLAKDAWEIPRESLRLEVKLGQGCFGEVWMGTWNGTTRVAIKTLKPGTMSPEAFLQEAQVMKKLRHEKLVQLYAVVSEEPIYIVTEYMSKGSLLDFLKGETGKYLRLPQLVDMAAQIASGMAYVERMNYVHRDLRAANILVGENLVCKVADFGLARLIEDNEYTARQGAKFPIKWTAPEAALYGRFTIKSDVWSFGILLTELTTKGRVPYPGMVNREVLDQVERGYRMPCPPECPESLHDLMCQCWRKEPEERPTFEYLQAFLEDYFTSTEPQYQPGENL
# GSK 3α, sequence (P49840 whole entry): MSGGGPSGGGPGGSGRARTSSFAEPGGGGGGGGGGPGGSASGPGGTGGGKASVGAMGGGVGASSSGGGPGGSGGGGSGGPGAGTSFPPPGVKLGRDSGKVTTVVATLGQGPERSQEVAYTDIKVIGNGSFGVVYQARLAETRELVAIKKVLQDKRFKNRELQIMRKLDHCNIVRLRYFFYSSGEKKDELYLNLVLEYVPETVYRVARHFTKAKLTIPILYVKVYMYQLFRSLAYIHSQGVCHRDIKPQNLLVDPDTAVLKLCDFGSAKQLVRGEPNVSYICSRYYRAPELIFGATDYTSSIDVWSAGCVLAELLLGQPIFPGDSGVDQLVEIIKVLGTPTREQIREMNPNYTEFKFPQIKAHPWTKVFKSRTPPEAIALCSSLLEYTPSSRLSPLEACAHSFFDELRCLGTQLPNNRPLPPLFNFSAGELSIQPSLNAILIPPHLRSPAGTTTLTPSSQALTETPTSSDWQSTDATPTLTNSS
Structure (SMILES),"Ulcer grade ([1]; TNBS mice, 1 mg/kg oral BID, 2 days, vehicle 3.7 ± 0.3, non-diseased 0 ± 0)","LP inflammation ([1]; TNBS mice, 1 mg/kg oral BID, 2 days, vehicle 4.1 ± 0.2, non-diseased 0.3 ± 0.2)","Ulcer grade ([1]; TNBS mice, 5 mg/kg oral BID, 2 days, vehicle 3.7 ± 0.3, non-diseased 0 ± 0)","LP inflammation ([1]; TNBS mice, 5 mg/kg oral BID, 2 days, vehicle 4.1 ± 0.2, non-diseased 0.3 ± 0.2)","activity in in vivo model of colonic inflammation (histopathology analysis) [1, 5]","inflammatory cell infiltrate in the reticular and laminar propria zone [1, 5]",ulcer grade and epithelial repair compared to the vehicle control ([1]; dosed orally at 5 mg/kg),IC50 (Syk) [nM],IC50 [2] [nM],IC50 (PBMCs [3]) [nM],IC50 (c-Src) [nM],IC50 (HT29 cells) [nM],IC50 (GSK 3α) [nM],"IC50 (PBMCs [4]; IFNγ, read-out: IC50 Values for Inhibition of Cytokine Release PBMCs IFNγ) [nM]","IC50 (PBMCs [4]; IL-2, read-out: IC50 Values for Inhibition of Cytokine Release PBMCs IL-2) [nM]","Ulcer grade ([1]; TNBS mice, reference item, dose not given, vehicle 3.7 ± 0.3)","LP inflammation ([1]; TNBS mice, reference item, dose not given, vehicle 4.1 ± 0.2)"
"COCCOCCOCCOc1cc(Nc2nccc(Oc3ccc(NC(=O)Nc4cc([Si](C)(C)C)nn4-c4ccc(C)cc4)c4ccccc34)n2)cc(OC)c1 [Example 21, 1-(4-((2-((3-Methoxy-5-(2-(2-(2-methoxyethoxyl)ethoxy)ethoxy)phenyl)amino)pyrimidin-4-yl)oxy)naphthalen-1-yl)-3-(1-(p-tolyl)-3-(trimethylsilyl)-1H-pyrazol-5-yl)urea]",3.3 ± 0.5,3.8 ± 0.3,3.2 ± 0.4,2.7 ± 0.3,significant activity,marked reduction,marked improvements,89,204,2,17,2,11600,2,137,–,–
"Nc1ccc(O)c(C(=O)O)c1 [Example 5-ASA, 5-aminosalicylic acid, reference compound]",–,–,–,–,–,–,–,–,–,–,–,–,–,–,–,3.0 ± 0.5,2.3 ± 0.3
